Measured values published in PubChem BioAssay (NCI).
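Results reflect a 48-hour exposure of cells in 96-well plates to compound at five concentrations. At the TGI there is no net growth.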

Tests used:
Experiment in all cases: DTP human tumour cell line panel, 48 h
KM12 colon = tested on: KM12 colon
K-562 leukemia = tested on: K-562 leukemia
SNB-19 CNS = tested on: SNB-19 CNS
M14 melanoma = tested on: M14 melanoma
HOP-92 NSCLC = tested on: HOP-92 NSCLC
SNB-75 CNS = tested on: SNB-75 CNS
U251 CNS = tested on: U251 CNS
SW-620 colon = tested on: SW-620 colon
MDA-N = tested on: MDA-N
SK-MEL-2 melanoma = tested on: SK-MEL-2 melanoma
ACHN renal = tested on: ACHN renal
SN12C renal = tested on: SN12C renal
HT29 colon = tested on: HT29 colon

Compound | TGI (KM12 colon) | TGI (K-562 leukemia) | TGI (SNB-19 CNS) | TGI (M14 melanoma) | TGI (HOP-92 NSCLC) | TGI (SNB-75 CNS) | TGI (U251 CNS) | TGI (SW-620 colon) | TGI (MDA-N) | TGI (SK-MEL-2 melanoma) | TGI (ACHN renal) | TGI (SN12C renal) | TGI (HT29 colon)
N=C(N)c1ccc(C(NC(=O)CNS(=O)(=O)c2ccc3ccccc3c2)P(=O)(Oc2ccccc2)Oc2ccccc2)cc1 (configuration not stated) | > 100 µM | > 100 µM | > 100 µM | > 100 µM | > 100 µM | > 100 µM | > 100 µM | > 100 µM | > 100 µM | > 100 µM | > 100 µM | > 100 µM | > 100 µM
Cc1nc(-c2cc3cc([N+](=O)[O-])ccc3oc2=O)cs1 | > 100 µM | > 100 µM | > 100 µM | > 100 µM | > 100 µM | 94.8 µM | > 100 µM | > 100 µM | > 100 µM | > 100 µM | > 100 µM | > 100 µM | > 100 µM
C(=Nc1ccc(-c2nc3ccccc3[nH]2)cc1)c1cccs1 | > 100 µM | > 100 µM | > 100 µM | > 100 µM | 98.2 µM | > 100 µM | > 100 µM | > 100 µM | > 100 µM | > 100 µM | > 100 µM | > 100 µM | > 100 µM
CC(C)(C)OC(=O)NC(Cc1ccc(OCc2ccccc2)cn1)C(=O)N1CCCCC1 (configuration not stated) | > 100 µM | > 100 µM | > 100 µM | > 100 µM | > 100 µM | 70.3 µM | > 100 µM | > 100 µM | > 100 µM | 58.2 µM | > 100 µM | > 100 µM | > 100 µM
CCOC(=O)C(=Cc1[nH]c2ccccc2c1-c1c[nH]c2ccccc12)C(=O)OCC | 18 µM | 26.6 µM | 28.3 µM | 21.7 µM | 23.5 µM | 26.4 µM | 24.3 µM |  | 26.5 µM | 29.6 µM | 24.5 µM | 29.4 µM | 17.5 µM
O=C1CSC(c2cccc(Oc3ccccc3)c2)N1c1ccc(Cl)cc1 (configuration not stated) | > 100 µM | 69.9 µM | > 100 µM | > 100 µM | 65.7 µM | 95.8 µM | > 100 µM | > 100 µM | 63.6 µM | 40.2 µM | 75 µM | > 100 µM | > 100 µM
CCN(CC)C(=S)N/N=C(/C)c1cccc(/C(C)=N\NC(=S)N(CC)CC)n1 | 4.1 µM | 11.6 µM | 18.4 µM | 3.63 µM | 7.74 µM | 10.2 µM | 8.74 µM | 15.2 µM | 21.4 µM | 20.3 µM | 4.61 µM | 12.4 µM | 13.2 µM
Cc1ccc(N=Nc2c(O)ccc3cc(S(=O)(=O)O)cc(S(=O)(=O)O)c23)cc1 | > 100 µM | > 100 µM | > 100 µM | > 100 µM | > 100 µM | > 100 µM | > 100 µM | > 100 µM | > 100 µM | > 100 µM | > 100 µM | > 100 µM | 
